{
  "source": "patent US20250051578A1",
  "about": "“RHODAMINE-METHYLENE BLUE DERIVATIVE FLUORESCENT PROBE AND PREPARATION METHOD AND APPLICATION THEREOF” (Henan Polytechnic University, priority 2023, published 2025)",
  "test_system": "Raw246.7 cells",
  "assay": "Dual-channel confocal fluorescence imaging of ClO^− and ATP in cells",
  "format": "cell-based",
  "conditions": "for fluorescence of the NIR channel (ClO^− level) versus control group / fluorescence of the yellow channel (ATP level) versus control group: Raw246.7 cells incubated with the substance 1 h, then fluorescent probe 1×10^−5 mol/L 30 min",
  "procedure": "After Raw246.7 cells are incubated with relevant steps, fluorescence imaging is performed by an Olympus FV500-IX70 laser confocal microscope, and results of the fluorescence imaging are shown in FIG. 6. Control group (Control): the Raw246.7 cells are incubated with the fluorescent probe (1×10^−5 mol/L) for 30 minutes (min). Oligomycin A (Omy A) group: the Raw246.7 cells are incubated with Omy A (2×10^−5 mol/L) for 1 h and then incubated with the fluorescent probe (1×10^−5 mol/L) for 30 min. Omy A+ATP group: the Raw246.7 cells are incubated with Omy A (2×10^−5 mol/L) for 1 h to obtain incubated cells, the incubated cells are incubated with the ATP (1×10^−3 mol/L) for 1 h and then incubated with the fluorescent probe (1×10^−5 mol/L) for 30 min. N-acetylcysteine (NAC) group: the Raw246.7 cells are incubated with NAC (5×10^−4 mol/L) for 1 h and then incubated with the fluorescent probe (1×10^−5 mol/L) for 30 min. NAC+ClO^− group: the Raw246.7 cells are incubated with NAC (5×10^−4 mol/L) for 1 h to obtain incubated cells, the incubated cells are incubated with ClO^− (2×10^−4 mol/L) for 1 h and then incubated with the fluorescent probe (1×10^−5 mol/L) for 30 min.\nAfter the Raw246.7 cells are incubated with relevant steps, the fluorescence imaging is performed by the Olympus FV500-IX70 laser confocal microscope, and results of the fluorescence imaging are shown in FIG. 7. Control group (Control): the Raw246.7 cells are incubated with the fluorescent probe (1×10^−5 mol/L) for 30 min, and a concentration of glucose (Glu) in a culture media is 5.5×10^−3 mol/L. Lipopolysaccharide (LPS) group: the Raw246.7 cells are incubated with LPS ([…]) for 1 h and then incubated with the fluorescent probe (1×10^−5 mol/L) for 30 min. No Glu group: the Raw246.7 cells are incubated with the fluorescent probe (1×10^−5 mol/L) for 30 min, and no Glu is added to the culture media. High Glu group: the Raw246.7 cells are incubated with the fluorescent probe (1×10^−5 mol/L) for 30 min, and the concentration of Glu in the culture media is 2.5×10^−2 mol/L. Acetaminophen (C8H9NO2, APAP) group: the Raw246.7 cells are incubated with […] for 1 h and then incubated with the fluorescent probe (1×10^−5 mol/L) for 30 min.",
  "note": "“Also recorded” adds a separate entry of the source.",
  "data": [
    {"compound": "CCN(CC)c1ccc2c(c1)Oc1cc(N(CC)CC)ccc1C21c2ccccc2C(=O)N1CCN1CCN(C(=O)N2c3ccc(N(C)C)cc3Sc3cc(N(C)C)ccc32)CC1", "values": [
      {"measurement": "detection of ClO^− in cells by the probe", "setting": "Raw246.7 cells, probe 1×10^−5 mol/L 30 min, NIR channel, listed as fluorescent probe", "result": "can detect exogenous ClO^− in cells; also recorded: can detect endogenous ClO^−"},
      {"measurement": "detection of ATP in cells by the probe", "setting": "Raw246.7 cells, probe 1×10^−5 mol/L 30 min, yellow channel, listed as fluorescent probe", "result": "can detect exogenous ATP in cells; also recorded: can detect endogenous ATP"}
    ]},
    {"compound": "CC(=O)N[C@@H](CS)C(=O)O", "note": "[NAC, N-acetylcysteine]", "values": [
      {"measurement": "fluorescence of the NIR channel (ClO^− level) versus control group", "result": "significantly weakened"},
      {"measurement": "fluorescence of the yellow channel (ATP level) versus control group", "result": "significantly enhanced"}
    ]},
    {"compound": "CC[C@@H]1/C=C/C=C/C[C@H](C)[C@H](O)[C@](C)(O)C(=O)[C@H](C)[C@@H](O)[C@H](C)C(=O)[C@H](C)[C@@H](O)[C@H](C)/C=C/C(=O)O[C@H]2[C@@H](C)[C@@H](CC1)O[C@@]1(CC[C@@H](C)[C@@H](C[C@H](C)O)O1)[C@@H]2C", "note": "[Omy A, Oligomycin A]", "values": [
      {"measurement": "fluorescence of the NIR channel (ClO^− level) versus control group", "result": "significantly enhanced"},
      {"measurement": "fluorescence of the yellow channel (ATP level) versus control group", "result": "significantly weakened"}
    ]},
    {"compound": "CC(=O)Nc1ccc(O)cc1", "note": "[APAP, Acetaminophen]", "values": [
      {"measurement": "fluorescence of the NIR channel (ClO^− level) versus control group", "result": "significantly enhanced"},
      {"measurement": "fluorescence of the yellow channel (ATP level) versus control group", "result": "almost non-fluorescent"}
    ]},
    {"compound": "Lipopolysaccharide [LPS]", "values": [
      {"measurement": "fluorescence of the NIR channel (ClO^− level) versus control group", "result": "significantly enhanced"},
      {"measurement": "fluorescence of the yellow channel (ATP level) versus control group", "result": "significantly weakened"}
    ]}
  ]
}
